One assay addresses T1, Sortase A (Staphylococcus aureus, UniProt Q9S446).
T1 sequence (Q9S446 whole entry): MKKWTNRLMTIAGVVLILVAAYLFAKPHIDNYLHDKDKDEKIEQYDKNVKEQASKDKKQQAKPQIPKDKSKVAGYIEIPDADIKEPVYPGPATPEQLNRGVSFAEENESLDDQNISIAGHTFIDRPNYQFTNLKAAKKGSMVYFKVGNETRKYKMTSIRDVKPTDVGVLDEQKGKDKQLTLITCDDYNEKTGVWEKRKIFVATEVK
Description: Inhibition of SrtA.

The test system of assay [1] is Staphylococcus aureus. Description: Antimicrobial activity against Staphylococcus aureus Newman. The assay is classed as functional.
Assay [2] has as its system Staphylococcus aureus. As to the kind of experiment: Inhibition of Staphylococcus aureus Newman adhesion to fibronectin. The assay is classed as functional, organism-based.
Assay [3] has as its system Staphylococcus aureus. Description: Inhibition of Staphylococcus aureus SKM12 adhesion to fibronectin in relative to wild type. It counts as functional. Details: scale not given: the % may be the effect or the level left.

Converted amounts (≈) assume the structure as drawn. Where only a bound is given, the exact number is not on record here.

Broadly, the IC50 is the concentration needed to halve the response being measured. Usually MIC stands for the lowest concentration that inhibits growth of the organism.

Regarding `COC1=Cc2ccnc3ccnc(c23)C1=O` [DEMETHYLOXY-AAPTAMINE], the IC50 against Sortase A is 94.7 µM. The same molecule returned an MIC against Staphylococcus aureus [1] of 25 µg/mL (≈ 118 µM).
In turn, `COc1ccc2cc3[n+](cc2c1OC)CCc1cc2c(cc1-3)OCO2.[Cl-]` [BERBERINE CHLORIDE] showed an IC50 against Sortase A of 23.4 µM. In addition, the MIC against Staphylococcus aureus [1] was determined as 100 µg/mL.
Turning to `COc1cc2ccnc3c2c(c1O)N(C)C=C3` [ISOAAPTAMINE], the Activity entry is “Dose-dependent effect” with Staphylococcus aureus [2] and 99% with Staphylococcus aureus [3]. Moreover, inhibition against Sortase A was half-maximal at 16.2 µM (IC50). For the same molecule, in the assay with Staphylococcus aureus [1], the MIC is 50 µg/mL (≈ 219 µM).
`Oc1cc2ccnc3c2c(c1O)NC=C3` [DEMETHYLAAPTAMINE] gave an IC50 at Sortase A of 85.9 µM. Also, in the assay with Staphylococcus aureus [1], inhibition of growth (MIC) required 25 µg/mL (≈ 125 µM).
The corresponding values for `COc1cc2ccnc3c2c(c1OC)NC=C3` [AAPTAMINE] are 103 µM and above 200 µg/mL.
